Results reported in paper PMC11157767 (Molecular Cancer, 2024).

Test system: TRIM24-MET-i cells
Procedure: The number of unique and shared differentially expressed genes between each comparison are shown in parentheses. A linear regression line is depicted along with Pearson’s correlation coefficient (r) and its associated p-value. […] Common negatively enriched genesets between all three comparisons are in bold. c, Heatmaps showing expression of Hallmark_Myc_Target_v1/2 genes for indicated cells and treatment comparisons (TRIM-MET cells were treated in vitro, TFG-MET cells in vivo). Select leading edge genes from GSEA are labeled.

C[C@@H](Oc1cc(-c2cnn(C3CCNCC3)c2)cnc1N)c1c(Cl)ccc(F)c1Cl [Crizotinib]
ES GOMF_CATALYTIC_ACTIVITY_ACTING_ON_A_TRNA: -0.6982 | ES GOMF_GTPASE_ACTIVITY: -0.4838 | ES GOMF_GUANYL_NUCLEOTIDE_BINDING: -0.4485 | ES GOMF_HYDROLASE_ACTIVITY_ACTING_ON_ACID_ANHYDRIDES: -0.386 | ES GOMF_RRNA_BINDING: -0.7423 | NES GOMF_CATALYTIC_ACTIVITY_ACTING_ON_A_TRNA: -2.2819 | NES GOMF_GTPASE_ACTIVITY: -1.922 | NES GOMF_GUANYL_NUCLEOTIDE_BINDING: -1.812 | NES GOMF_HYDROLASE_ACTIVITY_ACTING_ON_ACID_ANHYDRIDES: -1.664 | NES GOMF_RRNA_BINDING: -2.231 | ES GARY_CD5_TARGETS_DN (GSEA v. DMSO): -0.652 | ES HALLMARK_ADIPOGENESIS (GSEA v. DMSO): -0.2603 | ES HALLMARK_ALLOGRAFT_REJECTION (GSEA v. DMSO): -0.4058 | ES HALLMARK_ANDROGEN_RESPONSE (GSEA v. DMSO): -0.4828 | ES HALLMARK_ANGIOGENESIS (GSEA v. DMSO): -0.5624 | ES HALLMARK_APICAL_JUNCTION (GSEA v. DMSO): -0.293 | ES HALLMARK_APICAL_SURFACE (GSEA v. DMSO): 0.4986 | ES HALLMARK_APOPTOSIS (GSEA v. DMSO): -0.4398 | ES HALLMARK_CHOLESTEROL_HOMEOSTASIS (GSEA v. DMSO): 0.2795 | ES HALLMARK_COAGULATION (GSEA v. DMSO): -0.4513 | ES HALLMARK_COMPLEMENT (GSEA v. DMSO): -0.5126 | ES HALLMARK_DNA_REPAIR (GSEA v. DMSO): -0.2541 | ES HALLMARK_E2F_TARGETS (GSEA v. DMSO): -0.2746 | ES HALLMARK_EPITHELIAL_MESENCHYMAL_TRANSITION (GSEA v. DMSO): -0.3755 | ES HALLMARK_ESTROGEN_RESPONSE_EARLY (GSEA v. DMSO): -0.4277 | ES HALLMARK_ESTROGEN_RESPONSE_LATE (GSEA v. DMSO): -0.3421 | ES HALLMARK_G2M_CHECKPOINT (GSEA v. DMSO): -0.3012 | ES HALLMARK_GLYCOLYSIS (GSEA v. DMSO): -0.404 | ES HALLMARK_HEDGEHOG_SIGNALING (GSEA v. DMSO): -0.4466 | ES HALLMARK_HYPOXIA (GSEA v. DMSO): -0.3351 | ES HALLMARK_IL2_STAT5_SIGNALING (GSEA v. DMSO): -0.5189 | ES HALLMARK_IL6_JAK_STAT3_SIGNALING (GSEA v. DMSO): -0.4268 | ES HALLMARK_INFLAMMATORY_RESPONSE (GSEA v. DMSO): -0.4921 | ES HALLMARK_INTERFERON_ALPHA_RESPONSE (GSEA v. DMSO): 0.2583 | ES HALLMARK_INTERFERON_GAMMA_RESPONSE (GSEA v. DMSO): -0.3093 | ES HALLMARK_KRAS_SIGNALING_DN (GSEA v. DMSO): 0.3288 | ES HALLMARK_KRAS_SIGNALING_UP (GSEA v. DMSO): -0.4922 | ES HALLMARK_MITOTIC_SPINDLE (GSEA v. DMSO): -0.2568 | ES HALLMARK_MTORC1_SIGNALING (GSEA v. DMSO): -0.5236 | ES HALLMARK_MYC_TARGETS_V1 (GSEA v. DMSO): -0.6267 | ES HALLMARK_MYC_TARGETS_V2 (GSEA v. DMSO): -0.805 | ES HALLMARK_MYOGENESIS (GSEA v. DMSO): -0.2282 | ES HALLMARK_NOTCH_SIGNALING (GSEA v. DMSO): -0.4408 | ES HALLMARK_OXIDATIVE_PHOSPHORYLATION (GSEA v. DMSO): -0.4296 | ES HALLMARK_P53_PATHWAY (GSEA v. DMSO): -0.2784 | ES HALLMARK_PANCREAS_BETA_CELLS (GSEA v. DMSO): 0.2429 | ES HALLMARK_PEROXISOME (GSEA v. DMSO): 0.273 | ES HALLMARK_PI3K_AKT_MTOR_SIGNALING (GSEA v. DMSO): -0.3625 | ES HALLMARK_PROTEIN_SECRETION (GSEA v. DMSO): -0.4081 | ES HALLMARK_TGF_BETA_SIGNALING (GSEA v. DMSO): -0.5775 | ES HALLMARK_TNFA_SIGNALING_VIA_NFKB (GSEA v. DMSO): -0.5914 | ES HALLMARK_UNFOLDED_PROTEIN_RESPONSE (GSEA v. DMSO): -0.6237 | ES HALLMARK_UV_RESPONSE_DN (GSEA v. DMSO): -0.3089 | ES HALLMARK_UV_RESPONSE_UP (GSEA v. DMSO): -0.4076 | ES HALLMARK_WNT_BETA_CATENIN_SIGNALING (GSEA v. DMSO): -0.3432 | ES KRIGE_RESPONSE_TO_TOSEDOSTAT_6HR_DN (GSEA v. DMSO): -0.6237 | ES KRIGE_RESPONSE_TO_TOSEDOSTAT_24HR_DN (GSEA v. DMSO): -0.6444 | ES LEE_BMP2_TARGETS_DN (GSEA v. DMSO): -0.6669 | ES WEI_MYCN_TARGETS_WITH_E_BOX (GSEA v. DMSO): -0.6994 | NES GARY_CD5_TARGETS_DN (GSEA v. DMSO): -2.697 | NES HALLMARK_ADIPOGENESIS (GSEA v. DMSO): -0.9905 | NES HALLMARK_ALLOGRAFT_REJECTION (GSEA v. DMSO): -1.519 | NES HALLMARK_ANDROGEN_RESPONSE (GSEA v. DMSO): -1.666 | NES HALLMARK_ANGIOGENESIS (GSEA v. DMSO): -1.626 | NES HALLMARK_APICAL_JUNCTION (GSEA v. DMSO): -1.114 | NES HALLMARK_APICAL_SURFACE (GSEA v. DMSO): 1.572 | NES HALLMARK_APOPTOSIS (GSEA v. DMSO): -1.646 | NES HALLMARK_CHOLESTEROL_HOMEOSTASIS (GSEA v. DMSO): 0.993 | NES HALLMARK_COAGULATION (GSEA v. DMSO): -1.59 | NES HALLMARK_COMPLEMENT (GSEA v. DMSO): -1.9374 | NES HALLMARK_DNA_REPAIR (GSEA v. DMSO): -0.9367 | NES HALLMARK_E2F_TARGETS (GSEA v. DMSO): -1.051 | NES HALLMARK_EPITHELIAL_MESENCHYMAL_TRANSITION (GSEA v. DMSO): -1.427 | NES HALLMARK_ESTROGEN_RESPONSE_EARLY (GSEA v. DMSO): -1.626 | NES HALLMARK_ESTROGEN_RESPONSE_LATE (GSEA v. DMSO): -1.298 | NES HALLMARK_G2M_CHECKPOINT (GSEA v. DMSO): -1.145 | NES HALLMARK_GLYCOLYSIS (GSEA v. DMSO): -1.5363 | NES HALLMARK_HEDGEHOG_SIGNALING (GSEA v. DMSO): -1.301 | NES HALLMARK_HYPOXIA (GSEA v. DMSO): -1.274 | NES HALLMARK_IL2_STAT5_SIGNALING (GSEA v. DMSO): -1.973 | NES HALLMARK_IL6_JAK_STAT3_SIGNALING (GSEA v. DMSO): -1.432 | NES HALLMARK_INFLAMMATORY_RESPONSE (GSEA v. DMSO): -1.856 | NES HALLMARK_INTERFERON_ALPHA_RESPONSE (GSEA v. DMSO): 0.9765 | NES HALLMARK_INTERFERON_GAMMA_RESPONSE (GSEA v. DMSO): -1.175 | NES HALLMARK_KRAS_SIGNALING_DN (GSEA v. DMSO): 1.322 | NES HALLMARK_KRAS_SIGNALING_UP (GSEA v. DMSO): -1.8648 | NES HALLMARK_MITOTIC_SPINDLE (GSEA v. DMSO): -0.9855 | NES HALLMARK_MTORC1_SIGNALING (GSEA v. DMSO): -2.004 | NES HALLMARK_MYC_TARGETS_V1 (GSEA v. DMSO): -2.398 | NES HALLMARK_MYC_TARGETS_V2 (GSEA v. DMSO): -2.6016 | NES HALLMARK_MYOGENESIS (GSEA v. DMSO): -0.867 | NES HALLMARK_NOTCH_SIGNALING (GSEA v. DMSO): -1.2742 | NES HALLMARK_OXIDATIVE_PHOSPHORYLATION (GSEA v. DMSO): -1.635 | NES HALLMARK_P53_PATHWAY (GSEA v. DMSO): -1.06 | NES HALLMARK_PANCREAS_BETA_CELLS (GSEA v. DMSO): 0.7197 | NES HALLMARK_PEROXISOME (GSEA v. DMSO): 1.047 | NES HALLMARK_PI3K_AKT_MTOR_SIGNALING (GSEA v. DMSO): -1.259 | NES HALLMARK_PROTEIN_SECRETION (GSEA v. DMSO): -1.414 | NES HALLMARK_TGF_BETA_SIGNALING (GSEA v. DMSO): -1.842 | NES HALLMARK_TNFA_SIGNALING_VIA_NFKB (GSEA v. DMSO): -2.258 | NES HALLMARK_UNFOLDED_PROTEIN_RESPONSE (GSEA v. DMSO): -2.204 | NES HALLMARK_UV_RESPONSE_DN (GSEA v. DMSO): -1.132 | NES HALLMARK_UV_RESPONSE_UP (GSEA v. DMSO): -1.522 | NES HALLMARK_WNT_BETA_CATENIN_SIGNALING (GSEA v. DMSO): -1.0353 | NES KRIGE_RESPONSE_TO_TOSEDOSTAT_6HR_DN (GSEA v. DMSO): -2.692 | NES KRIGE_RESPONSE_TO_TOSEDOSTAT_24HR_DN (GSEA v. DMSO): -2.791 | NES LEE_BMP2_TARGETS_DN (GSEA v. DMSO): -2.874 | NES WEI_MYCN_TARGETS_WITH_E_BOX (GSEA v. DMSO): -3.001 | ES GOBP_NCRNA_PROCESSING (GSEA, v. DMSO): -0.7604 | ES GOBP_RIBONUCLEOPROTEIN_COMPLEX_BIOGENESIS (GSEA, v. DMSO): -0.7216 | ES GOBP_RIBOSOME_BIOGENESIS (GSEA, v. DMSO): -0.7916
